Measured values taken from patent US7741436B2, “Biologically active peptides and their use for repairing injured nerves” (priority 2001, dated 2010).

Assays:
Format in all cases: cell-based
[1] = system: human embryonic neocortical neurons; assay: Survival of human embryonic neocortical neurons on injured glial cells of the human spinal cord; settings: 72 hrs
Source text: (§1) The CNS tissues were first placed in cold saline. The spinal cord tissues were identified under a stereomicroscope, and carefully freed of meninges. To obtain monolayer cultures of human spinal cord glial cells, the cells were dissociated by mechanical trituration using a Pasteur-pipette, and placed in Petri dishes (Corning, N.Y., USA) containing 10% fetal calf serum (Hyclone, Logan, UH) in DMEM-F12 (Gibco, U.K.) supplemented with penicillin and streptomycin as described (Liesi et al. 2001).
Human embryonic spinal cord glial cells were cultured till confluency in 10% fetal bovine serum as described (Liesi et al., 2001). The confluent cultures were trypsinized and cells replated at 100 000 cells/22 mm glass coverslip, and grown till confluency. The confluent cultures were changed into normal adult human serum, and injured by using a 18 G gauge sterile needle. The KDI peptide was added at 1 μg/ml (3 μM) and at 10 μg/ml (30 μM) concentration and the P1543 peptide (p20) was added at a concentration of 1 μM, and 50-100 000 freshly isolated human embryonic neocortical neurons were added on the glial cells. The control cultures had neurons added either without the peptide or the lesion. The cells were cultured for 72 hrs in 5% CO2/95% air at +37° C., and fixed for quantitation of neurons and measurement of their neuritic lengths. The neurons on glial monolayers were visualized by immunostaining using mouse monoclonal antibodies against a neuron-specific tubulin isoform (TUJ1). The results were evaluated by counting neurons in six random fields on 3 different coverslip per experiment. In this way, more than 300 neurons were counted per experiment. Statistical analysis of the results was performed using one-way analysis of Varians (ANOVA) and Student-Newman-Keuls multiple comparisons test on the Instat (v2.03) program (GraphPad, San Diego, Calif.).

[2] = system: human embryonic spinal cord neurons; assay: Survival and neurite outgrowth of human embryonic spinal cord neurons on injured glial cells of the human spinal cord; settings: for survival (numbers) of spinal cord neurons on lesioned glial monolayers / numbers of spinal cord neurons extending long neurites (>100 μm): 72 hrs; for numbers of spinal cord neurons extending long neurites (>100 μm): lesioned glial monolayers
Source text: as §1
Freshly isolated tissue from the human embryonic spinal cord (8-10 weeks of age) was mechanically dissociated and cells were plated at 50,000 on a 22 mm glass coverslip confluent with human embryonic spinal cord glia. The glial monolayers were injured using a 18 G needle prior to plating of the neurons. The cells were cultured in normal adult human serum for 72 hrs. The numbers of spinal cord neurons on the glial monolayers in the presence or absence of KDI (0.0355 μg/ml-1.0 μg/ml) was estimated on TUJ1-labelled cultures. The statistical analysis was performed using one-way-variance analysis (ANOVA), and the Student-Newman-Keuls multiple comparisons test.
Confluent cultures of the spinal cord glial cells were trypsinized using Trypsin-EDTA, and cells replated at a density of 5×10^4 on a 22 mm glass coverslip. The cells were cultivated until they formed confluent monolayers. At this point, their culture medium was changed into 10% normal adult human serum in DMEM-F12, and glial monolayers were injured using 18 G-needle. After injury, the KDI peptide (Multiple Peptide Systems, La Jolla, Calif., USA) was added into the culture medium after which a suspension of freshly dissociated cells from spinal cord or neocortex was added at 2×10^4 on one coverslip. After 24-48 hrs, the cultures were fixed in 2% paraformaldehyde in PBS, pH 7.4 for 15 min and immunostained for TUJ1 as described previously (Liesi et al., 2001).
Viability and neurite outgrowth of human CNS-neurons on the spinal cord glial cells were evaluated by counting 10 random fields of cells in 6 different cultures. A total of 265 cells were counted. The numbers of long neurites (>10 cell soma) were estimated similarly. One-way-variance analysis (ANOVA) was used to evaluate the results.

[3] = system: embryonal bodies of human CNS; assay: Attachment and neurite outgrowth of embryonal bodies on white matter of cryostat sections of adult human spinal cord (myelin influence); settings: 5-10 μg/ml
Description: Embryonal bodies containing immature stem cells from spinal cord, or neocortex were obtained by placing the mechanically dissociated CNS-cells on 10 cm Petri dishes (Corning) in Neurobasal medium (Gibco, U.K.) with B27-supplement (Gibco, U.K.), antibiotics and 500 μM L-glutamine.
Cryostat sections (10 μm) of adult normal human spinal cord were cut in coronal plain on SuperFrost Plus slides (Menzel, Germany). Each slide had three sections. The slides with freshly cut sections were immediately placed in sterile Quadriperm-plates (In Vitro Systems & Services, Germany) and 10 ml of culture medium was added. The culture medium was 1.0% normal adult human serum in DMEM-F12 supplemented with penicillin and streptomycin. Two embryonal bodies were placed on areas of white matter on top of each section, and the cultures were placed in the incubator with 5% CO2/95% air at 98% humidity at +37° C. The KDI peptide (Multiple Peptide Systems, La Jolla, Calif.) was added in the medium at 1-10 μg/ml, and the 10-amino acid precursor (RDIAEIIKDI (SEQ ID NO: 1)) was added at equimolar concentrations. The control cultures received no peptide. After 10 days, the cultures were fixed and immunostained for neurofilament proteins and additional neuronal and glial markers to identify the neurites and cells within the embryonal bodies. Numbers of embryonal bodies attached, and extending neurites directly on the adult white matter tissue were counted on each slide and the results analyzed using one-way-variance-analysis (ANOVA). Numbers of long neurites (>100 μm) extending from embryonal bodies in control cultures and in cultures with 5-10 μg/ml of the KDI peptide in the culture medium were counted and a non-parametric Whitney-Mann test was used to analyze those results.

[4] = system: human CNS neurons; assay: Attachment and neurite outgrowth of human embryonic CNS neurons on synthetic peptides coupled to glass; settings: 0.1-10 μg/ml, peptide covalently cross-linked to glass, 24 hrs
Description: The cells were dissociated by trituration in a sterile culture medium (RPMI 1640) containing penicillin (100 U/ml), streptomycin (100 μg/ml) and 200 μM L-glutamine. The dissociated cells were plated on glass coverslips pre-coated (Liesi et al., 1989) with mouse laminin-1 (Boehringer-Mannheim, Germany) or with the peptides KDI-gc and RDIAEIIKDI-gc (SEQ ID NO: 1), as described elsewhere (Matsuzawa et al., 1996b). The peptides were from the Multiple Peptide Systems (La Jolla, Calif.). The cultures were maintained for 24 hrs, fixed in 2% paraformaldehyde, and processed for immunocytochemistry.
Immunocytochemistry for neuron specific tubulin isoform TUJ1 was performed as described elsewhere (Liesi et al., 2001). In short, the cells were permeabilized in methanol for 5 min at −20° C., washed in PBS and incubated with monoclonal TUJ1-antibodies for 1 hr at room temperature. The antibody was of high specificity and was used at 1:500 dilution. After immunocytochemistry, the coverslips were mounted in PBS:glycerol (1:1) and viewed with Olympus Provis fluorescence microscope with appropriate filter combinations.

## KDI
[1]; 1 μg/ml soluble peptide, vs lesion control
  attachment and neurite outgrowth of neocortical neurons on lesioned spinal cord glial cells: significantly (p<0.001) improved
[1]; 1 μg/ml
  improvement of attachment and neurite outgrowth of neocortical neurons compared to that induced by p20 (1 μg/ml): statistically significant
[1]; 10 μg/ml soluble peptide, vs unlesioned and lesioned controls
  neuronal survival (attachment and neurite outgrowth) of neocortical neurons on lesioned spinal cord glial cells: no statistical difference of neuronal survival
[2]; 0.0355 μg/ml
  survival (numbers) of spinal cord neurons on lesioned glial monolayers: significantly (p<0.001) enhanced survival
[2]; 0.1 μg/ml in culture medium, 48 hrs
  neurite extension of TUJ1-immunoreactive spinal cord neuron on injured glial monolayers: extends a long neurite
[2]; 0.1 μg/ml
  survival (numbers) of spinal cord neurons on lesioned glial monolayers: significantly (p<0.001) enhanced survival
[2]; 0.1 μg/ml, p<0.001
  numbers of spinal cord neurons extending long neurites (>100 μm): significantly increased the numbers of long neurites
[2]; 0.5 μg/ml
  survival (numbers) of spinal cord neurons on lesioned glial monolayers: did not promote survival of the spinal cord neurons any better than the lesion by itself
[2]; 1.0 μg/ml
  survival (numbers) of spinal cord neurons on lesioned glial monolayers: did not promote survival of the spinal cord neurons any better than the lesion by itself
[2]; 1.0 μg/ml, vs lesion-control
  numbers of spinal cord neurons extending long neurites (>100 μm): significantly increased the numbers of long neurites
[3]; 10 days in vitro
  extension of neurofilament-positive neurites from spinal cord embryonal bodies on white matter: long neurofilament-positive nerve fibres extend out of the embryonal bodies
[3]; 10 days in vitro, p<0.0001 vs control
  numbers of long neurites extending from embryonal bodies onto white matter: a large number of long neurites extended
[3]; 10 days, vs control (p<0.01) and vs P1543 (p<0.01)
  numbers of embryonal bodies attached and sending out neurites on white matter: significantly higher
[4]
  attachment and neurite outgrowth of human CNS neurons: supported attachment and neurite outgrowth
